Test results taken from patent publication US20250032575A1, “USE OF A MURAMYL PEPTIDE IN THE TREATMENT OF SKELETAL GROWTH RETARDATION” (UNIVERSITE CLAUDE BERNARD LYON 1, priority 2021, published 2025).

How the values were obtained:
Type in all cases: in vivo, mice
[1] = test system: chronically undernourished mouse model; experiment: femur and tibia bone length in chronically undernourished mouse model; conditions: at sacrifice day 56, oral, vs placebo
Description: (§1) Conventional C57B1/6j laboratory mice have been bred in the Gnotobiology Laboratory for more than 10 generations. Mice have been maintained in IVC cages (Tecniplast, Italy), exposed to 12:12 h light-dark cycles, supplied with tap water and fed ad libitum with sterile diet V1124-300 (Ssniff Spezialdiaten GmbH) (irradiated −25 kGy, Bioster, Czech Republic). The mice have been mated and after delivery, the litter size was reduced to 6 pups per mother. On day 21, male mice have been weaned on the experimental low-protein, low-fat diet (3.5 kcal/gram, protein: 4.1 wt %, carbohydrate: 78 wt %, fat: 2 wt %) and regularly monitored until 56 days after birth (adult age in mice). Mice weaned on the low-protein, low-fat diet have been treated 5 times a week with placebo, composition A containing MDP or composition B containing Murabutide. At the end of the experiment, food and bedding were removed at 8 am and the mice have been sacrificed after 5 hours of fasting by isoflurane inhalation and cervical dislocation. All animals have been sacrificed within one hour between 1 and 2 p.m.
(§2) The daily treatment dose was 30 μL placebo or for MDP 25 μg in 30 μL placebo and for murabutide 28 μg in 30 μL placebo. Each of the compositions has been administered by pipette to the mouse's tongue. The mouse has been maintained until the composition had been swallowed completely.
(§3) To measure body length, the mice have briefly been anaesthetised with isoflurane (Piramal Healthcare, UK). The anaesthetised mouse has been held by the tail and the nose-anus length has been measured using a ruler. Relative length has been calculated as % length gain, where body length at day 21 (weaning) has been set to 100%. The length growth rate has been calculated by dividing the absolute length gain from day 21 to day 56 by the number of days (i.e. 35). Femur and tibia bones have been dissected at sacrifice, fixed in 4% paraformaldehyde—PBS overnight at 4° C., washed with PBS and preserved in 70% ethanol. Bone length has been measured using a digital caliper (Festa).
Conventional C57B1/6j laboratory mice have been bred in the Gnotobiology Laboratory for more than 10 generations. Mice have been maintained in IVC cages (Tecniplast, Italy), exposed to 12:12 h light-dark cycles, supplied with tap water and fed ad libitum with sterile diet V1124-300 (Ssniff Spezialdiäten GmbH) (irradiated −25 kGy, Bioster, Czech Republic). The mice have been mated and after delivery the litter size was reduced to 6 pups per mother. On day 21, male mice have been weaned on the experimental low-protein, low-fat diet (3.5 kcal/gram, protein: 4.1 wt %, carbohydrate: 78 wt %, fat: 2 wt %) and monitored regularly for up to 56 days after birth. […]

[2] = test system: IGF-1; experiment: circulating IGF-1 level in serum, Mouse/Rat IGF-1 Quantikine ELISA; conditions: serum at day 56, oral, vs placebo
Description: Conventional C57B1/6j laboratory mice have been bred in the Gnotobiology Laboratory for more than 10 generations. Mice have been maintained in IVC cages (Tecniplast, Italy), exposed to 12:12 h light-dark cycles, supplied with tap water and fed ad libitum with sterile diet V1124-300 (Ssniff Spezialdiaten GmbH) (irradiated −25 kGy, Bioster, Czech Republic). The mice have been mated and after delivery, the litter size was reduced to 6 pups per mother. On day 21, male mice have been weaned on the experimental low-protein, low-fat diet (3.5 kcal/gram, protein: 4.1 wt %, carbohydrate: 78 wt %, fat: 2 wt %) and regularly monitored until 56 days after birth (adult age in mice). […]
At the end of the experiment, the blood has been collected and left to coagulate at room temperature for 2 hours. […] IGF-1 levels have been measured using the Mouse/Rat IGF-1 Quantikine ELISA kit (R&D systems) according to the manufacturer's instructions. Data have been analysed using the following statistical test: One way ANOVA with Tukey's multiple comparisons test.
Conventional C57B1/6j laboratory mice have been bred in the Gnotobiology Laboratory for more than 10 generations. […] On day 21, male mice have been weaned on the experimental low-protein, low-fat diet (3.5 kcal/gram, protein: 4.1 wt %, carbohydrate: 78 wt %, fat: 2 wt %) and monitored regularly for up to 56 days after birth. […]

[3] = test system: chronically undernourished mouse model; experiment: body length (nose-anus) growth in chronically undernourished mouse model; conditions: for growth rate / relative growth (% length gain, day 21 = 100%) / total height: male mice on low-protein, low-fat diet, day 21 to 56, oral, 5 times a week, vs placebo; for skeletal growth (linear or longitudinal): summary of examples 1 and 2, oral administration, juvenile mice on protein-deficient diet mimicking chronic undernutrition
Description: as §1, §2, §3
Conventional C57B1/6j laboratory mice have been bred in the Gnotobiology Laboratory for more than 10 generations. Mice have been maintained in IVC cages (Tecniplast, Italy), exposed to 12:12 h light-dark cycles, supplied with tap water and fed ad libitum with sterile diet V1124-300 (Ssniff Spezialdiäten GmbH) (irradiated −25 kGy, Bioster, Czech Republic). The mice have been mated and after delivery the litter size was reduced to 6 pups per mother. On day 21, male mice have been weaned on the experimental low-protein, low-fat diet (3.5 kcal/gram, protein: 4.1 wt %, carbohydrate: 78 wt %, fat: 2 wt %) and monitored regularly for up to 56 days after birth. Mice weaned on the low-protein, low-fat diet have been treated 5 times a week with either the placebo composition or the composition comprising mifamurtide as prepared in point 1.1 above. At the end of the experiment, the food and bedding were removed at 8 a.m. and the mice have been sacrificed after 5 hours of fasting by isoflurane inhalation and cervical dislocation. All animals have been sacrificed within one hour between 1 and 2 p.m.
Each of the compositions has been administered by pipette to the tongue of the mouse. The mouse has been held until the composition had been swallowed completely.
The tests were carried out on male mice with each of the above compositions P, A, AB and B, according to the protocol indicated in example 1, point 1.1 above (56-day period).
The daily treatment dose was 30 μL of composition P (Placebo) or 25 μg MDP alone in 30 μL of placebo (composition A), or 25 μg MDP and 2.10^8 CFU of Lactiplantibacillus plantarum strain WJL bacteria in 30 μL of placebo (composition AB) or 2.10^8 CFU of Lactiplantibacillus plantarum strain WJL bacteria in 30 μL of placebo (composition B). […]

[4] = Example 1, 5 times a week, MDP 25 μg or murabutide 28 μg in 30 μL
[5] = Example 1, MDP 25 μg or murabutide 28 μg in 30 μL
[6] = Example 2, Mifamurtide 62.5 μg/day in 30 μL

Row | Compound | femur size [1, 4] | length of the tibia [1, 4] | circulating IGF1 level [2, 4] | growth rate [3, 5] | relative growth (% length gain, day 21 = 100%) [3, 5] | total height [3, 5] | skeletal growth (linear or longitudinal) [3] | size of the femur [1, 6] | size of the tibia [1, 6] | circulating IGF1 level [2, 6] | growth rate [3, 6] | relative growth (% length gain, day 21 = 100%) [3, 6] | total height [3, 6]
1 | CCCCOC(=O)[C@@H](CCC(N)=O)NC(=O)[C@H](C)NC(=O)[C@@H](C)O[C@H]1[C@H](O)[C@@H](CO)OC(O)[C@@H]1NC(C)=O (some centres unmarked) [murabutide, muramyl dipeptide butyl ester] | positive trend in murabutide treatment that did not reach statistical significance | positive trend of increased growth | significantly increased | significantly increased | significantly increased | significantly increased | positive effect | – | – | – | – | – | –
2 | muramyl tripeptide phosphatidyl ethanolamine [Mifamurtide] | – | – | – | – | – | – | positive effect | significantly increased | significantly increased | significantly increased | significantly increased | significantly increased | significantly increased
